Test results as given in article PMC8575457, “Molecular reconstruction of recurrent evolutionary switching in olfactory receptor specificity” (eLife, 2021).
Where a chain is given by its changes, count along the chain named.

How the values were obtained:
Assay in all cases: single sensillum extracellular recording, Ir decoder neuron
Conditions in all cases: 1% v/v odor in water, 10 ul, 500 ms pulse; agonist
DmelIr75b^DsecS1 [1] = molecular target: T1, DmelIr75b^DsecS1 (Drosophila melanogaster, UniProt A0A1S6EMU4, I210K/M217L/K220Q/N259S/I277M/F289L/Q291K/P473S/G492S/A520T/T523S, form not given); assay type: cell-based
T1 construct: gene IR75b; UAS transgene in Ir decoder neuron; with Ionotropic receptor 8a (D. melanogaster, endogenous)
T1 sequence (A0A1S6EMU4 1-609 I210K/M217L/K220Q/N259S/I277M/F289L/Q291K/P473S/G492S/A520T/T523S): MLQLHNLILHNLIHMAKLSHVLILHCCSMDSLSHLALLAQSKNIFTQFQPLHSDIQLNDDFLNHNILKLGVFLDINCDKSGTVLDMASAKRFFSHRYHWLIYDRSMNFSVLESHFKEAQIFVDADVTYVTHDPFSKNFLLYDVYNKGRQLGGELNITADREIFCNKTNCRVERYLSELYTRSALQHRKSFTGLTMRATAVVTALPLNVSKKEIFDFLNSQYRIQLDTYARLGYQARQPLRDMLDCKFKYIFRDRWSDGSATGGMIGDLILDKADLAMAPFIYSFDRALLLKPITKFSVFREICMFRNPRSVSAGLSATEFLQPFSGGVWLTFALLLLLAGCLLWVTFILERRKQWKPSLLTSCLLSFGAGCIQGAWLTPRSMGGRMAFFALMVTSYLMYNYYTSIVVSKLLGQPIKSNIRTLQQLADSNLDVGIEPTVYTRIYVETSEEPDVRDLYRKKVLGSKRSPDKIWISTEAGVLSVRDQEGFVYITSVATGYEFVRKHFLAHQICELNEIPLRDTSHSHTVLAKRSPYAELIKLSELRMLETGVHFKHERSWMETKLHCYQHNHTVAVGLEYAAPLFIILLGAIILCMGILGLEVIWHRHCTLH
T1 sequence (Q9W365 18-936 partner): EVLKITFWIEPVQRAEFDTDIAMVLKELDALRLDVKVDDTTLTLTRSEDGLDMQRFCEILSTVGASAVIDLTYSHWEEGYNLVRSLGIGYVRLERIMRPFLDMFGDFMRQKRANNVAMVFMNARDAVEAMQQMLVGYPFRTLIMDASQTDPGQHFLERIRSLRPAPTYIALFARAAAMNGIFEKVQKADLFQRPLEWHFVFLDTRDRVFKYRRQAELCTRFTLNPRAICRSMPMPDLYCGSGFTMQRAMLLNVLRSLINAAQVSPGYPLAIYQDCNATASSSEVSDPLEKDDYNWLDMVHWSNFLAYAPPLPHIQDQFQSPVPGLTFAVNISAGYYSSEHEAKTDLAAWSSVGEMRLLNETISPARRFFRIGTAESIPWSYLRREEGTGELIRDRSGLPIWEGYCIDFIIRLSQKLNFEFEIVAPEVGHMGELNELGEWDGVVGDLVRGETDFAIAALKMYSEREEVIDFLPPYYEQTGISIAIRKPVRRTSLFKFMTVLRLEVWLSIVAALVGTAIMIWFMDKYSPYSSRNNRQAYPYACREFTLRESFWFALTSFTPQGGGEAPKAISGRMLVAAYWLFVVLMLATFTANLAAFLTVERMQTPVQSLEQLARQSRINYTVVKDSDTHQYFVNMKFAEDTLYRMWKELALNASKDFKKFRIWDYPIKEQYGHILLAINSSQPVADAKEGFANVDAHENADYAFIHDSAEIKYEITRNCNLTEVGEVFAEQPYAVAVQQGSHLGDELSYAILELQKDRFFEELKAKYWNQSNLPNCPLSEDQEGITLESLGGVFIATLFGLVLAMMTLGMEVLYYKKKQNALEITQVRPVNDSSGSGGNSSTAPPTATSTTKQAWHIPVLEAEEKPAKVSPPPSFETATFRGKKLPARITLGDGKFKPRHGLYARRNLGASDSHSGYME

DmelIr75b = molecular target: T2, DmelIr75b (Drosophila melanogaster, UniProt A0A1S6EMU4, T523S); assay type: cell-based
T2 construct: gene IR75b; cDNA, UAS transgene expressed in D. melanogaster Ir decoder neuron with endogenous Ir8a; predicted heterotetramer; with Ionotropic receptor 8a (D. melanogaster, endogenous)
T2 sequence (A0A1S6EMU4 1-609 T523S): T1 sequence (A0A1S6EMU4 1-609 I210K/M217L/K220Q/N259S/I277M/F289L/Q291K/P473S/G492S/A520T/T523S) with K210I, L217M, Q220K, S259N, M277I, L289F, K291Q, S473P, S492G, T520A
T2 sequence (Q9W365 18-936 partner): T1 sequence (Q9W365 18-936 partner)

DsecIr75b = molecular target: T3, DsecIr75b (Drosophila sechellia, UniProt A0A1S6EMU3); assay type: cell-based, Drosophila melanogaster
T3 construct: gene IR75b; cDNA, UAS transgene expressed in D. melanogaster Ir decoder neuron with D. melanogaster Ir8a; predicted heterotetramer; with Ionotropic receptor 8a (D. melanogaster, endogenous)
T3 sequence (A0A1S6EMU3 1-609): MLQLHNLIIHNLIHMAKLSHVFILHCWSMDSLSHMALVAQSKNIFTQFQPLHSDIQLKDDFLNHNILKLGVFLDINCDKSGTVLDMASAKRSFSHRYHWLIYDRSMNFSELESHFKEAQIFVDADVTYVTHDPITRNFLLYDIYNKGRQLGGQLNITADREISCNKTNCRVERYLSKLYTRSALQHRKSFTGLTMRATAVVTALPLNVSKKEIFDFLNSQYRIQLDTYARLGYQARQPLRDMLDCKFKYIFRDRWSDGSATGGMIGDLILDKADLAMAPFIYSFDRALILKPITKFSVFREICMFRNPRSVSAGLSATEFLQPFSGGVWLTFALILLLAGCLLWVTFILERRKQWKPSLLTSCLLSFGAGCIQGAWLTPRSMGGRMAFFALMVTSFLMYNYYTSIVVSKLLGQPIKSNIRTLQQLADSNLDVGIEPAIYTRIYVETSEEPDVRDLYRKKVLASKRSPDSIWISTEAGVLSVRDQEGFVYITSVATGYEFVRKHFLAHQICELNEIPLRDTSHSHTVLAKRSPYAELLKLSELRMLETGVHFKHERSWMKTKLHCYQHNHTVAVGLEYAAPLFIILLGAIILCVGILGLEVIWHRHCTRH
T3 sequence (Q9W365 18-936 partner): T1 sequence (Q9W365 18-936 partner)

DmelIr75b^DsecS1 [2] = molecular target: T4, DmelIr75b^DsecS1 (Drosophila melanogaster, UniProt A0A1S6EMU4, I210K/M217L/K220Q/N259S/I277M/F289L/Q291K, form not given); assay type: cell-based
T4 construct: gene IR75b; UAS transgene in Ir decoder neuron; with Ionotropic receptor 8a (D. melanogaster, endogenous)
T4 sequence (A0A1S6EMU4 1-609 I210K/M217L/K220Q/N259S/I277M/F289L/Q291K): T1 sequence (A0A1S6EMU4 1-609 I210K/M217L/K220Q/N259S/I277M/F289L/Q291K/P473S/G492S/A520T/T523S) with S473P, S492G, T520A, S523T
T4 sequence (Q9W365 18-936 partner): T1 sequence (Q9W365 18-936 partner)

CCCCCC(=O)O [C6, hexanoic acid]
solvent-corrected response (spikes/s) (DmelIr75b^DsecS1 [1]): DmelIr75b^DsecS1,4mutS2 still has a significantly increased sensitivity to C6 when compared with DmelIr75b | solvent-corrected response (spikes/s) (DmelIr75b): mutation of the hotspot in DmelIr75b is sufficient to confer novel responses to C5 and C6 | solvent-corrected response (spikes/s) (DsecIr75b): its response to C6 is significantly smaller than that of DsecIr75b | solvent-corrected response (spikes/s) (DmelIr75b^DsecS1 [2]): DmelIr75b^DsecS1, with significantly increased responses to C6
